# Molecular target: T1, Polo-like kinase 1 polo-box domain (Plk1-PBD) (Homo sapiens, UniProt P53350)
# T1 construct: HA-EGFP-Plk1 in mitotic 293A lysates
# Assay: ELISA-based Plk1 PBD competition assay (moderate activity)
# Format: biochemical
# T1 sequence (P53350 whole entry, the tested form may be a part): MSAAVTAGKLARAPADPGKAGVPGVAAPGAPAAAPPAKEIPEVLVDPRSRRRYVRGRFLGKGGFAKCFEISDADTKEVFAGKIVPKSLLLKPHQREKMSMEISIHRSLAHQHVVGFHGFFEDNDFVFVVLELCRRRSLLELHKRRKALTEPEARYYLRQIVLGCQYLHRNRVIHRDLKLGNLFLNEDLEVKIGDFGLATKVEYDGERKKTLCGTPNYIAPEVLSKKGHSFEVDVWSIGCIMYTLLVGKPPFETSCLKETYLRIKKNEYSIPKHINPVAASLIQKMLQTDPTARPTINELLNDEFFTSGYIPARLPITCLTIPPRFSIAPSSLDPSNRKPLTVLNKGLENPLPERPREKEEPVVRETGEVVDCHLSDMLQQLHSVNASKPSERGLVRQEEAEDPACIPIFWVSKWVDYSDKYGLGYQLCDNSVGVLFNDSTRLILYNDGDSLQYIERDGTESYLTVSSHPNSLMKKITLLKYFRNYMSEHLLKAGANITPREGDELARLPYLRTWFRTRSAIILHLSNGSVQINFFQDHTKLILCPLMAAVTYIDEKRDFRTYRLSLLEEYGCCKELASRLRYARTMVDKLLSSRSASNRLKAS
smiles,measurement,value
"O=c1c(O)cccc2cc(O)c(O)c(O)c12 [PPG, purpurogallin]",ELISA-based Plk1 PBD competition assay (moderate activity),PPG PLS5 Bg-5 Bg-6|moderate weak weak weak|

# — PMC4161390, “Design and Synthesis of a Cell-Permeable, Drug-Like Small Molecule Inhibitor Targeting the Polo-Box Domain of Polo-Like Kinase 1” (PLoS ONE, 2014)
